{"source": "patent US7713548B2", "about": "“Amorphous solid dispersions” (sanofi-aventis U.S. LLC, priority 2005, dated 2010)", "key": {"[1]": {"system": "animal models of rheumatoid arthritis", "experiment": "Animal models of rheumatoid arthritis", "format": "in vivo", "settings": "by modulating the immune response"}, "[2]": {"experiment": "Physical stability of amorphous pure drug substance", "format": "physicochemical", "settings": "amorphous forms of the pure drug substance; crystallized over time"}, "[3]": {"target": "peripheral-type benzodiazepine receptors (Homo sapiens, UniProt P30536)", "sequence (P30536 whole entry)": "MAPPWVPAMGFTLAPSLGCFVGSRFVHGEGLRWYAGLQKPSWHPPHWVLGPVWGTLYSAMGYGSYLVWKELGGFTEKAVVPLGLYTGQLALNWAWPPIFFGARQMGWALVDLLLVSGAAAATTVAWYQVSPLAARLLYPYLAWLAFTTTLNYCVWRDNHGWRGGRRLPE", "settings": "described in U.S. Pat. No. 6,262,045 and 6,395,729; cited from earlier work"}}, "data": [{"smiles": "CN(C)C(=O)Cc1nn(-c2ccccc2)c(=O)c2c1c1ccc(Cl)cc1n2C", "note": "[7-chloro-N,N,5-trimethyl-4-oxo-3-phenyl-3,5-dihydro-4H-pyridazino[4,5-b]indole-1-acetamide]", "values": [{"measurement": "pharmacological activity in animal models of rheumatoid arthritis", "setting": "[1]", "result": "has shown pharmacological activity"}, {"measurement": "physical stability", "setting": "[2]", "result": "limited physical stability"}, {"measurement": "affinity for the peripheral-type benzodiazepine receptors", "setting": "[3]", "result": "high affinity"}]}]}
